≈ marks a conversion by molar mass, not a printed value.

Consider 21 compounds from ChEMBL document CHEMBL2439958, “Inhibitory effect of oxygenated cholestan-3β-ol derivatives on the growth of Mycobacterium tuberculosis” (Bioorg Med Chem Lett, 2013).

In one assay the test system is Vero. Kind of assay: Cytotoxicity against african green monkey Vero cells by tetrazolium dye reduction assay. The settings on record: Chlorocebus sabaeus. Type of assay: ADME, cell-based.
The test system of assay [1] is Mycobacterium tuberculosis. Kind of assay: microbe, parasite or virus in culture. Type of assay: functional. The settings on record: H37Rv.
Assay [2] is described as follows: Selectivity index, ratio of IC50 for african green monkey Vero cells to MIC90 for Mycobacterium tuberculosis H37Rv. It is filed as functional.

Take `C[C@H](CCCC(C)(C)O)[C@H]1CC[C@H]2[C@@H]3CC=C4C[C@@H](O)CC[C@]4(C)[C@H]3CC[C@]12C`: in the assay on Vero, the IC50 – broadly, the midpoint of a concentration-inhibition curve – is more than 128 µM. The same compound showed an MIC90 in assay [1] of more than 128 µM.

On to `CC(C)CCC[C@@H](C)[C@H]1CC[C@H]2[C@@H]3CC(=O)[C@H]4C[C@@H](O)CC[C@]4(C)[C@H]3CC[C@]12C` [5alpha-CHOLESTAN-3beta-OL-6-ONE], for which, in assay [2], the “Selectivity Index” value was determined as 15.3. Besides, half-maximal inhibition with Vero (IC50) required 92 µM. The MIC90 in assay [1] was determined as 6 µM (≈ 2.42 µg/mL).

Compound `CC(=O)O[C@H]1CC[C@@]2(C)[C@@H](CC(=O)[C@@H]3[C@@H]2CC[C@]2(C)[C@@H]([C@H](C)CCCC(C)C)CC[C@@H]32)C1` gave an IC50 in the assay with Vero of more than 128 µM. Besides, the MIC90 in assay [1] was more than 128 µM.

For `CC(=O)O[C@H]1CC[C@@]2(C)C(=CC(=O)[C@H]3[C@@H]4CC[C@H]([C@H](C)CCCC(C)C)[C@@]4(C)CC[C@@H]32)C1` [7-OXOCHOLESTERYL ACETATE], the IC50 in the assay on Vero is more than 128 µM. The MIC90 in assay [1] was more than 128 µM.

As to `C[C@H](CCCC(C)(C)O)[C@H]1CC[C@H]2[C@@H]3[C@@H](O)C[C@H]4C[C@@H](O)CC[C@]4(C)[C@H]3CC[C@]12C`, the “Selectivity Index” value in assay [2] is recorded as more than 5.3. The IC50 in the assay on Vero was more than 128 µM. This compound had an MIC90 in assay [1] of 24 µM (≈ 10.1 µg/mL).

In turn, `CO[C@H]1/C=C/O[C@@]2(C)Oc3c(C)c(O)c4c(O)c(c(/C=N/N5CCN(C)CC5)c(O)c4c3C2=O)NC(=O)/C(C)=C\C=C\[C@H](C)[C@H](O)[C@@H](C)[C@@H](O)[C@@H](C)[C@H](OC(C)=O)[C@@H]1C` [RIFAMPIN] displayed an MIC90 in assay [1] of 0.07 µM (≈ 0.0576 µg/mL).

On to `CC(C)CCC[C@@H](C)[C@H]1CC[C@H]2[C@@H]3C(=O)C[C@H]4C[C@@H](O)CC[C@]4(C)[C@H]3CC[C@]12C`, for which the “Selectivity Index” value in assay [2] is 7.8. Moreover, half-maximal inhibition in the assay with Vero (IC50) required 62 µM. Moreover, the MIC90 in assay [1] was 8 µM (≈ 3.22 µg/mL).

On to `CC(C)CCC[C@@H](C)[C@H]1CC[C@H]2[C@@H]3[C@H](F)[C@@H](O)[C@H]4C[C@@H](O)CC[C@]4(C)[C@H]3CC[C@]12C`, for which, in assay [2], the “Selectivity Index” value was less than 0.4. Half-maximal inhibition with Vero (IC50) was put at 41 µM. In assay [1], this compound registered an MIC90 of more than 128 µM.

On to `CC(C)CCC[C@@H](C)[C@H]1CC[C@H]2[C@@H]3[C@H](F)C(=O)[C@H]4C[C@@H](O)CC[C@]4(C)[C@H]3CC[C@]12C`, for which the “Selectivity Index” value in assay [2] was 8.7. In the assay with Vero, the IC50 worked out at 40 µM. The same compound gave an MIC90 in assay [1] of 4.6 µM (≈ 1.94 µg/mL).

For `C[C@@H](CO)CCC[C@@H](C)[C@H]1[C@@H](O)C[C@H]2[C@@H]3CC=C4C[C@@H](O)CC[C@]4(C)[C@H]3CC[C@]12C`, the “Selectivity Index” value in assay [2] is more than 21. In the assay on Vero, the IC50 was more than 128 µM. The same compound yielded an MIC90 in assay [1] of 6 µM (≈ 2.51 µg/mL).

In the assay with Vero, `CC(=O)O[C@H]1CC[C@@]2(C)C(=CC(=O)[C@H]3[C@@H]4CC[C@H]([C@H](C)CCCC(C)(C)O)[C@@]4(C)CC[C@@H]32)C1` showed an IC50 of more than 128 µM. The MIC90 in assay [1] is more than 128 µM.

`CC(C)CCC[C@@H](C)[C@H]1CC[C@H]2[C@@H]3CC(=O)[C@H]4C[C@@H](O[Si](C)(C)C)CC[C@]4(C)[C@H]3CC[C@]12C`: the “Selectivity Index” value in assay [2] was 10.9. The compound also came in with an IC50 in the assay with Vero of 38 µM. Moreover, in assay [1], the MIC90 turned out to be 3.5 µM (≈ 1.66 µg/mL).

`CC(=O)O[C@H]1CC[C@@]2(C)C(=CC[C@H]3[C@@H]4CC[C@H]([C@H](C)CCCC(C)(C)O)[C@@]4(C)CC[C@@H]32)C1` displayed an MIC90 in assay [1] of more than 128 µM.

The compound `CC(=O)O[C@H]1CC[C@@]2(C)[C@@H](CC(=O)[C@@H]3[C@@H]2CC[C@]2(C)[C@@H]([C@H](C)CCCC(C)(C)O)CC[C@@H]32)C1` displayed an IC50 with Vero of more than 128 µM. In assay [1], this compound showed an MIC90 of more than 128 µM.

Compound `C[C@@H](CO)CCC[C@@H](C)[C@H]1CC[C@H]2[C@@H]3CC=C4C[C@@H](O)CC[C@]4(C)[C@H]3CC[C@]12C` returned an MIC90 in assay [1] of more than 128 µM.

Take `C[C@@H]1CC[C@@]2(OC1)O[C@H]1C[C@H]3[C@@H]4CC=C5C[C@@H](O)CC[C@]5(C)[C@H]4CC[C@]3(C)[C@H]1[C@@H]2C` [DISOGENIN]: the MIC90 in assay [1] is more than 128 µM.

Consider `NNC(=O)c1ccncc1` [ISONIAZID], for which the “Selectivity Index” value in assay [2] is on record as more than 320. Further, the IC50 in the assay on Vero was more than 128 µM. In assay [1], the MIC90 was 0.4 µM (≈ 0.0549 µg/mL).

Compound `C[C@H](CCCC(C)(C)O)[C@H]1CC[C@H]2[C@@H]3[C@H](O)C[C@H]4C[C@@H](O)CC[C@]4(C)[C@H]3CC[C@]12C` came in with an MIC90 in assay [1] of more than 128 µM.

In assay [1], `CC(C)CCC[C@@H](C)[C@H]1CC[C@H]2[C@@H]3[C@@H](O)C[C@H]4C[C@@H](O)CC[C@]4(C)[C@H]3CC[C@]12C` came in with an MIC90 of more than 128 µM.

`CC(C)CCC[C@@H](C)[C@H]1CC[C@H]2[C@@H]3C(=O)C=C4C[C@@H](O)CC[C@]4(C)[C@H]3CC[C@]12C` [7-OXOCHOLESTEROL]: the “Selectivity Index” value in assay [2] is recorded as less than 0.6. For the same compound, the IC50 with Vero was 75 µM. The MIC90 in assay [1] was more than 128 µM.

In assay [1], `CC(C)CCC[C@@H](C)[C@H]1CC[C@H]2[C@@H]3[C@H](O)C[C@H]4C[C@@H](O)CC[C@]4(C)[C@H]3CC[C@]12C` registered an MIC90 of more than 128 µM.
